This note sets out measurements from patent US12324832B2, “Application of heptoglycan-chain-containing oligosaccharide compounds in preparation of vaccine against Helicobacter pylori” (Jiangnan University, priority 2020, dated 2025).

The test system of the experiment is serum antibodies generated against the Helicobacter pylori serotype O:6 purified polysaccharide. Briefly: Oligosaccharide chip: binding of antiserum antibodies to spotted synthetic oligosaccharides. Also on record: species or system rabbit. The following applies: spotting concentration 1 mM; for fluorescence intensity on oligosaccharide chip: FIG. 6A/6B, serum diluted 1:50; for recognition and binding by antibodies in the antiserum: oligosaccharide fixed on chip via amino linker, antiserum against H. pylori serotype O6 LPS, anti-rabbit IgG FITC-labeled secondary antibody. Here is the method:
FIG. 6A: Detection of the antibody binding activity of the synthetic oligosaccharides in the oligosaccharide chip using an anti-rabbit IgG FITC-labeled secondary antibody. The chip spotting mode is shown as follows: • 1: trisaccharide 1, spotting concentration is 1 mM; • 2: tetrasaccharide 2, spotting concentration is 1 mM; • 3: heptoglycan-chain-containing pentasaccharide 3, spotting concentration is 1 mM; • 4: heptoglycan-chain-containing pentasaccharide 4, spotting concentration is 1 mM; • 5: […] containing only Lewis O-antigen, spotting concentration is 1 mM; • 6: heptoglycan-chain-containing octasaccharide 6, spotting concentration is 1 mM; • 7: tridecasaccharide 7 containing Lewis O-antigen, spotting concentration is 1 mM; and • 8: Helicobacter pylori serotype O6 lipopolysaccharide, spotting concentration is 1 mg/mL.
FIG. 6B: quantitative measurements of average fluorescence intensity of spots 1-7 in FIG. 6A. Error bars are standard deviations of 4 different points from two different detection areas.
A chemically synthesized oligosaccharide antigen was fixed onto the chip surface through an amino linker, and the antiserum was incubated with the oligosaccharide chip and then incubated with the secondary antibody.
Under a chip scanner, the fluorescence of the binding of the oligosaccharide fragment and the antibody can be obtained. In this way, the binding strength of the oligosaccharide fragment to the antibody in the serum can be quantified, the amount of the chemically synthesized oligosaccharide and antiserum can be saved, and the result can be reflected clearly.
The experimental procedure is as follows: • (1) Activated amino slides were spotted with a biochip spotter. After the completion of the spotting, incubation was carried out overnight at a temperature of 26° C. and a humidity of 55%. • (2) Then the slides were immersed in a solution B (50 nM Na2HPO4, 100 nM ethanolamine in water) at 50° C. for 1 hour. The slides were washed with ultrapure water 3 times, and the residual water was removed by centrifugation. • (3) 3% BSA (w/v) in PBS was used for blocking at 4° C. overnight. The slides were washed with PBST (PBS containing 0.1% tween) once, washed with PBS twice, and centrifugally dried. • (4) The slides were placed into a 16-well incubator (ProPlate). 120 μL of mouse serum sample diluted 1:50 in 1% BSA (w/v) in PBS was added to each well, and incubated in a 37° C. wet box in the dark for 1 hour. The sample was removed, and the incubator was washed with 150 μL of PBST 3 times. • (5) A secondary antibody diluted 1:400 in 1% BSA (w/v) in PBS was added, and incubated in a wet box at 37° C. in the dark for 45 minutes. The secondary antibody solution was removed, and the incubator was washed with 150 μL of PBST 3 times. The 16-well incubator was removed, washed with ultrapure water, and washed with ultrapure water for 15 minutes. The residual water was removed by centrifugation. Scanning was carried out using the chip scanner. Immunogenicity Detection of Helicobacter pylori Serotype O:6 Synthetic Oligosaccharide Fragment:
NHS slides (SurModics, DN01-0025) were spotted with synthetic oligosaccharide compounds 1 to 7 using a biochip spotter (Jiangsu RayMe Biotechnology Co., Ltd.). After the completion of the spotting, incubation was carried out overnight at a temperature of 26° C. and a humidity of 55%. Then the slides were immersed in a solution B (50 nM Na2HPO4, 100 nM ethanolamine in water) at 50° C. for 1 hour. The slides were washed with ultrapure water 3 times, and the residual water was removed by centrifugation. 3% BSA (w/v) in PBS was used for blocking at 4° C. overnight. The slides were washed with PBST (PBS containing 0.1% tween) once, washed with PBS twice, and centrifugally dried. The slides were placed into a 16-well incubator (ProPlate). 120 μL of mouse serum sample diluted 1:50 in 1% BSA (w/v) in PBS was added to each well, and incubated in a 37° C. wet box in the dark for 1 hour. […]

Entries after “also recorded” stand apart in the source; their conditions may differ.

Regarding `NCCCO[C@H]1OC([C@H](O)CO)[C@@H](O)[C@H](O)C1O[C@H]1OC([C@H](O)CO)[C@@H](O)[C@H](O)C1O[C@H]1OC([C@@H](CO)O[C@H]2OC([C@H](O)CO)[C@@H](O)[C@H](O[C@H]3OC([C@H](O)CO)[C@@H](O)C(O)C3O)C2O)[C@@H](O)[C@H](O)C1O` (stereo partly drawn) [Compound 3], the “fluorescence intensity on oligosaccharide chip” value (“fluorescence intensity” for short) is recorded as “higher fluorescence intensity”; the “recognition and binding by antibodies in the antiserum” value (shortened to “recognition and binding by antibodies”) is “well recognized; also recorded: obvious and strong recognition and binding”.

As to `NCCCO[C@H]1OC([C@H](O)CO)[C@@H](O)[C@H](O[C@H]2O[C@@H]([C@H](O)CO)[C@@H](O)C(O[C@H]3OC([C@H](O)CO)[C@@H](O)[C@H](O[C@H]4O[C@@H]([C@H](O)CO)[C@@H](O)C(O[C@H]5OC([C@H](O)CO)[C@@H](O)[C@H](O)C5O)C4O)C3O)C2O)C1O` (stereo partly drawn) [Compound 4], the “fluorescence intensity” value was “higher fluorescence intensity”; the “recognition and binding by antibodies” value was “well recognized; also recorded: obvious and strong recognition and binding”.

In the case of `NCCCO[C@H]1OC([C@H](O)CO)[C@@H](O)[C@H](O)C1O[C@H]1OC([C@H](O)CO)[C@@H](O)[C@H](O)C1O[C@H]1OC([C@@H](CO)O[C@H]2OC([C@H](O)CO)[C@@H](O)[C@H](O[C@H]3O[C@@H]([C@H](O)CO)[C@@H](O)C(O[C@H]4OC([C@H](O)CO)[C@@H](O)[C@H](O[C@H]5O[C@@H]([C@H](O)CO)[C@@H](O)C(O[C@H]6OC([C@H](O)CO)[C@@H](O)[C@H](O)C6O)C5O)C4O)C3O)C2O)[C@@H](O)[C@H](O)C1O` (stereo partly drawn) [Compound 6], the “fluorescence intensity” value is on record as “higher fluorescence intensity”; the “recognition and binding by antibodies” value is “well recognized; also recorded: obvious and strong recognition and binding”.
